Reference: patent publication US4547507A, “Benzothiopyranopyridinones” (Roussel Uclaf, priority 1982, dated 1985)
Structures can show the parent of a compound that is named as a salt.

Experiments:
[1] = target: rat striatal dopamine receptor (Rattus norvegicus, UniProt P61169); test: Test A: [3H]Spiroperidol displacement from rat striatal dopamine receptor binding sites; settings: rat striatal membranes, [3H]spiroperidol 0.19 nM, 37° C., 10 minutes, pH 7.6; read-out: Test A receptor DA IC50
Experimental: Test A--[^3 H Spiroperidol displacement from rat striatal dopamine receptor binding sites
(a) Radioligand--[phenyl-4-(n)-^3 H]Spiroperido (Amersham International, TRK 570, 21 Ci/mmol was used as a 1 μCi/1 μl solution in ethanol and this solution was diluted to 250 μCi in 1 ml of ethanol to produce a stock solution. This stock solution was diluted 3.2/10,000 in assay buffer and 0.1 ml volumes of this were added to 2 ml binding assays =0.19 nM [^3 H]spiroperidol and =[…]
(b) Assay buffer--The assay buffer was a modified 50 mM Tris HCl buffer with a pH of 7.6 containing the following additions: NaCl-120 mM, KCl-5 mM, MgCl2 -1 mM, CaCl2 -2 mM, Pargyline-10 μM and 1-Ascorbic Acid-0.1%
(c) Membrane preparation--The striata were dissected from male CFHB rats and homogenized in 20 volumes of ice cold 0.32M sucrose with a Teflon/glass homogenizer and the homogenate was centrifuged at 1000 g for 10 minutes. The resulting supernatant was recentrifuged at 30,000 g for 30 minutes and the supernatant was discarded and the pellet was resuspended by homogenization in 30 volumes of ice cold assay buffer.
(d) Non-specific binding--Non-specific binding was accounted for by the inclusion of 1 μM(+)butaclamol in blank binding assays which required a stock solution of 20 μM in distilled water.
(e) Displacing compounds--Solutions were prepared at 20x final assay concentration in distilled water.
(f) Binding assay protocol--1.3 ml assay buffer, 0.5 ml membrane suspension, 0.1 ml distilled H2 O or drug solution and 0.1 ml [^3 H]spiroperidol dilution Binding assays were made up in ice with the [^3 H]spiroperidol being added last and incubated at 37° C. for 10 minutes. The bound ligand was separated by filtration through Whatman GF/C filters under vacuum followed by 2×10 ml rinses of ice cold assay buffer. The filters were dried at 80° C. and counted in 5 ml volumes of ECONOFLUOR (NEN) scintillation cocktail. All binding assays, controls, blanks and each of four displacer concentration were run in triplicate. IC50 values (Test A) were obtained graphically from log dose versus percent inhibition of specific binding plots.

rat cortical α1 receptor = test: Test B: [3H]Prazosin displacement from rat cortical α1 receptor binding sites; settings: rat cerebral cortex membranes, [3H]prazosin 0.1 nM, 25° C., 30 minutes, pH 7.5
Experimental: Test B--[^3 H]Pyrazosin displacement from rat cortical α1 receptor binding sites (a) Radioligand--[^3 H]Prazosin (Amersham International, TRK 647, 28 Ci/mmole) was used as a 1 μCi/1 μl solution and this stock solution was diluted 1/18,000 in assay buffer and 0.1 ml volumes of this were added to 2 ml binding assay. =0.1 nM [^3 H]Prazosin and =0.0056 μCi/binding assay (b) Membrane preparation--The cerebral cortices were dissected from male CFHB rats and homogenized in 20 volumes of ice cold 0.32M sucrose using a Teflon/glass homogenizer and the homogenate was centrifuged at 1000 g for 10 minutes. The resulting pellet was discarded and the supernatant was recentrifuged at 30,000 g for 30 minutes. The supernatant was discarded and the pellet was resuspended by homogenization in 50 volumes of 50 mM pH 7.5 Tris HCl buffer (assay buffer). (c) Non-specific binding--Non-specific binding was accounted for by the inclusion of 100 μM 1-noradrenaline in blank binding assays which required a stock solution of 2 mM 1-noradrenaline made up fresh daily in 0.1% 1-ascorbic acid. (d) Displacing compounds--Solutions were prepared at 20x final assay concentration in distilled water. (e) Binding assay protocol--1.3 ml assay buffer, 0.5 ml membrane suspension, 0.1 ml distilled H2 O or drug solution and 0.1 ml [^3 H]pyrazosin dilution Binding assays were made up in ice with the [^3 H]pyrazosin being added last and incubated at 25° C. for 30 minutes. The bound ligand was separated by filtration through Whatman GF/C glass fibre filters under vacuum followed by 2×10 ml rinses of ice cold assay buffer. The filters were dried at 80° C. and counted in 5 ml volumes of ECONOFLUOR (NEN) scintillation cocktail. All binding assays, controls, blanks and each of four displacer concentrations were run in triplicate. IC50 values (Test B) were obtained graphically from log dose versus percent inhibition of specific binding plots.

rat cortical α2 receptor = test: Test C: [3H]Dihydroergocryptine displacement from rat cortical α2 receptor binding sites; settings: rat cortical membranes, [3H]dihydroergocryptine 0.45 nM, 25° C., 45 minutes in the dark; approximately 80% of binding is α2
Experimental: Test C--[^3 H]Dihydroergocryptine displacement from rat cortical α2 *receptor binding sites
(a) Radioligand--[9,10(n)-^3 H]9,10-Dihydroergocryptine (Amersham International, TRK 555, 17.5 Ci/mmole) was used as a 1 μCi/1 μl solution and this stock solution was diluted 1/6250 in assay buffer and 0.1 ml volumes of this were added to 2 ml binding assays. =0.45 nM and =0.016 μCi/binding assay
*In cortical membranes, [^3 H]dihydroergocryptine binds to both α1 and α2 receptor binding sites under the conditions of assay described here, approximately 80% of the binding is associated with α2 receptors.
(§1) (b) Membrane preparation--As for Test B
(c) Non-specific binding--As for Test B
(d) Displacing compounds--As for Test B
(e) Assay protocol--As for Test B with the exception that the binding assays were incubated at 25° C. for 45 minutes in the dark.

[2] = target: rat cortical muscarinic receptor; test: Test D: [3H]Quinuclidinyl benzylate displacement from rat cortical muscarinic receptor binding sites; settings: rat cortical membranes, [3H]quinuclidinyl benzylate 0.31 nM, 25° C., 60 minutes; read-out: Test D MUSC IC50
Experimental: Test D--[^3 H]Quinuclidinyl benzylate displacement from rat cortical muscarinic receptor binding sites
(a) Radioligand--DL-[3-^3 H]Quinuclidinyl benzylate (Amersham International, TRK 506, 12 Ci/mmol) was used as a 1 μCi/1 μl solution and this stock solution was diluted 1/13333 in assay buffer and 0.1 ml volumes of this were added to 2 ml binding assay =0.31 nM and =0.0075 μCi/binding assay
as §1
(c) Non-specific binding--Non-specific binding was accounted for by the inclusion of 100 μM oxotremorine sesquifumarate in blank binding assays and this required a stock solution of 2 mM in distilled H2 O.
(d) Displacement compounds--As for Test B
(e) Assay protocol--As for Test B with the exception that the binding assays were incubated at 25° C. for 60 minutes.

rat striatal dopamine receptor, sequence (P61169 whole entry): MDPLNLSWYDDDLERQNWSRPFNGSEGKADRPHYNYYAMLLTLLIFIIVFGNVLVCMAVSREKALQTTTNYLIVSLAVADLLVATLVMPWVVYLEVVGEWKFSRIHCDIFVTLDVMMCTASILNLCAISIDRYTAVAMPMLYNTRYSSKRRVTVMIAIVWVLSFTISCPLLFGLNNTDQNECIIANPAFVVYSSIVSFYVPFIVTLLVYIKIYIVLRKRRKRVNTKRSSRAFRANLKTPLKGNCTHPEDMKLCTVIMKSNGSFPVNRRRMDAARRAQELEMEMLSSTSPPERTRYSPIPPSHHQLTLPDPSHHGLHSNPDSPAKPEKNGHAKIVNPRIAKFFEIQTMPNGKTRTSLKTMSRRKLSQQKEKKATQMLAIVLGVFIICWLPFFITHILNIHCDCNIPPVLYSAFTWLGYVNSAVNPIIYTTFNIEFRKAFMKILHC

| SMILES | IC50 [1] [nM] | IC50 (rat cortical α1 receptor) [nM] | IC50 (rat cortical α2 receptor) [nM] | IC50 [2] [µM] |
| --- | --- | --- | --- | --- |
| CCOC(=O)CCN1CCc2sc3ccccc3c(=O)c2C1 [Example 21, 2-(2-ethoxycarbonylethyl)-1,2,3,4-tetrahydro-10H-(1)-benzothiopyrano[3,2-c]pyridin-10-one hydrochloride] | 780 | 7100 | 1000 | 100 |
| N#CCCN1CCc2sc3ccccc3c(=O)c2C1 [Example 22, 2-(2-cyanoethyl)-1,2,3,4-tetrahydro-10H-(1)-benzothiopyrano[3,2-c]pyridin-10-one hydrochloride] | > 10000 | > 10000 | > 10000 | > 100 |
| NC(=O)CCN1CCc2sc3ccccc3c(=O)c2C1 [Example 23, 2-(2-carbamoylethyl)-1,2,3,4-tetrahydro-10H-(1)-benzothiopyrano[3,2-c]pyridin-10-one hydrochloride] | 4200 | 5900 | 3000 | > 100 |
| O=c1c2c(sc3ccc(F)cc13)CCN(CC1CCCCC1)C2 [Example 24, 2-cyclohexylmethyl-8-fluoro-1,2,3,4-tetrahydro-10H-(1)-benzothiopyrano[3,2-c]pyridin-10-one hydrochloride] | 40 | > 10000 | > 10000 | > 100 |
| O=c1c2c(sc3ccccc13)CCN(CC1CC1)C2 [Example 25, 2-cyclopropylmethyl-1,2,3,4-tetrahydro-10H-(1)-benzothiopyrano[3,2-c]pyridin-10-one] | 220 | 1230 | 60 | 43 |
| O=c1c2c(sc3ccccc13)CCN(CC1CCC1)C2 [Example 26, 2-cyclobutylmethyl-1,2,3,4-tetrahydro-10H-(1)-benzothiopyrano[3,2-c]pyridin-10-one] | 60 | 690 | 50 | 50 |
| O=c1c2c(sc3ccccc13)CCN(CC1CCCC1)C2 [Example 27, 2-cyclopentylmethyl-1,2,3,4-tetrahydro-10H-(1)-benzothiopyrano[3,2-c]pyridin-10-one] | 40 | 680 | 50 | 57.5 |
| O=c1c2c(sc3ccccc13)CCN(CC1CCCCCC1)C2 [Example 28] | 150 | 2820 | 320 | > 100 |
| O=c1c2c(sc3ccccc13)CCN(CC1=CCCCC1)C2 [Example 29] | 170 | 2630 | 150 | > 100 |
| O=c1c2c(sc3ccccc13)CCN(CCC1CCCCC1)C2 [Example 30] | 180 | 1150 | 190 | > 100 |
| O=c1c2c(sc3ccccc13)CCN(CCC1OCCCO1)C2 [Example 31] | 560 | 3400 | 650 | 74.1 |
| O=c1c2c(sc3ccccc13)CCN(CCc1ccccc1)C2 [Example 32] | 230 | 170 | 210 | 46.8 |
| O=C(CN1CCc2sc3ccccc3c(=O)c2C1)c1ccccc1 [Example 33] | > 10000 | > 10000 | > 10000 | > 100 |
| C=CCN1CCc2sc3ccccc3c(=O)c2C1 [Example 34] | 2810 | 3980 | 390 | 37.2 |
| O=c1c2c(sc3ccccc13)CCN(CCO)C2 [Example 35] | 10000 | 10000 | 3300 | 71 |
| O=c1c2c(sc3ccccc13)CCN(CCCn1c(=O)[nH]c3ccccc31)C2 [Example 36] | 30 | 190 | 150 | 44.7 |
| O=c1c2c(sc3ccccc13)CCN(C1CCCCC1)C2 [Example 37] | 160 | 1590 | 600 | 11.7 |
| COc1ccc2sc3c(c(=O)c2c1)CN(CC1CCCCC1)CC3 [Example 38, 2-cyclohexylmethyl-8-methoxy-1,2,3,4-tetrahydro-10H-(1)-benzothiopyrano[3,2-c]pyridin-10-one hydrochloride] | 760 | > 10000 | 2190 | 91.2 |
